Results from PubChem BioAssay AID504645 (Southern Research Specialized Biocontainment Screening …, 2011).
Where “and” joins values, the source holds several entries; their conditions need not be identical. Equal entries are not always repeated. Calls of active or inactive are those of the source. No rule for the calls is given here. Where a SMILES comes first, the peptide text is derived from it. The star is where a group is joined. Cbz = O=C(OCc1ccccc1)*

Test system: M. tuberculosis H37Rv growth inhibition, glycerol-free medium
Assay: Mycobacterium tuberculosis H37Rv growth inhibition, glycerol free medium, confirmatory screen (AID 504645);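 also: bacteria grown one week before the viability dye was added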
Details: measured here: 90% growth inhibition

Compound | IC90
CCOC(=O)CSc1ncnc2c1nnn2-c1ccc(F)cc1 | 6.16 µM
COC(=O)C1CC(=O)N(c2ccc(OCc3ccccc3Cl)cc2)C1 (centres undefined) | 3.01 µM
CCOC(=O)CSc1ncnc2c1cnn2-c1ccccc1 | > 25 µM
Cc1cccc(N2CCN(C(=O)c3ccc(CNc4c(N5CCC(C)CC5)c(=O)c4=O)cc3)CC2)c1C | > 25 µM
COC(=O)c1cc(=O)n(-c2ccc(F)cc2)c(=Nc2ccc(F)cc2)s1 | 1 µM
c1ccc(/N=C2\N=C(Nc3ccccn3)c3ccccc32)nc1 | 0.29 µM
CCc1c(C)nc(SCC(=O)NC2CCCC2)[nH]c1=O | 3.21 µM
CC1CC(C)CN(C(=O)C2CCC(CNc3c(N4CCCCC4)c(=O)c3=O)CC2)C1 (centres undefined) | > 25 µM
CCOC(=O)CNC(=O)[C@H](Cc1ccccc1)NC(=O)OCc1ccccc1 (Cbz-Phe-Gly-OEt) | 3.09 µM
CCOc1ccc(NC(=O)CSc2nc(O)c(C)c(=O)n2-c2ccc(F)cc2)cc1 | > 25 µM
O=C(c1ccc(CNc2c(N3CCCC3)c(=O)c2=O)cc1)N1CC=C(c2ccccc2)CC1 | 6.76 µM
S=c1nc[nH]c2nc[nH]c12 | 1.72 µM
O=C(NCC(c1cccs1)N1CCOCC1)c1cc([N+](=O)[O-])cc([N+](=O)[O-])c1 (centres undefined) | 0.91 µM
O=C(CSc1nc2ccccc2c(=O)[nH]1)NCc1ccc(Cl)cc1 | 0.9 µM and 3.16 µM
O=C(CSc1nc2c(c(=O)[nH]1)CCC2)Nc1ccc(F)cc1 | > 25 µM
Cc1ccc(NC(=O)COC(=O)CCc2c[nH]c3ccccc23)cc1[N+](=O)[O-] | 4.35 µM
CC1CCN(C(=O)C2CCN(c3nnc(-n4cccc4)s3)CC2)CC1 | 3.34 µM
Cc1ccc2c(c1)c(C1=c3ccccc3=NC1=O)c(O)n2C | 3.61 µM
CCOC(=O)COc1ccc(/C=C2\NC(=S)N(CC)C2=O)cc1 | 4.74 µM

Compound | IC90
CCc1c(C)nc(SCC(=O)Nc2ccc3c(c2)OCCO3)[nH]c1=O | > 25 µM
CCOC(=O)CSc1ncnc2c1cnn2-c1ccc(Cl)cc1 | > 25 µM
Cc1cccc(/C=C/C(=O)c2ccc([N+](=O)[O-])o2)c1 | 0.65 µM
CNc1nc(SCc2ccccc2Cl)nc2c1CCCC2 | 2.33 µM
Nc1c(C(=O)NC2CCCCC2)nsc1C(=O)OCC(=O)NC1CCCCC1 | 2.64 µM
COC(=O)C(C)Oc1ccc(-c2nccc(-c3ccccn3)n2)cc1 (centres undefined) | 4.53 µM
O=C1C(Br)=Cc2cccc3cccc1c23 | 1.13 µM
COC(=O)CCc1nc2c(C#N)c(-c3ccc(Cl)cc3)ccn2n1 | 3.8 µM
CC1CC(C)CN(C(=O)c2ccc(CNc3c(N4CCCC4)c(=O)c3=O)cc2)C1 (centres undefined) | > 25 µM
CC(C)CCNC(=O)CSc1nc2ccccc2c(=O)[nH]1 | 3.83 µM
O=C(c1ccc(CNc2c(N3CCCC3)c(=O)c2=O)cc1)N1CCc2ccccc2C1 | > 25 µM
CC(C)NC(=O)c1sc(=S)n2c1[nH]c(=O)c1ccc(C(=O)NCCc3ccc(Cl)cc3)cc12 | 0.53 µM
CC1CCN(C(=O)c2ccc(CNc3c(N4CCCC4)c(=O)c3=O)cc2)CC1 | 6.69 µM
COc1ccc(-n2nnc3c(SCC(=O)OCc4ccccc4)ncnc32)cc1 | > 25 µM
CC(C)OC(=O)CSc1ncnc2c1cnn2-c1ccccc1 | > 25 µM
CC(=O)c1ccc(NC(=O)c2ccc(CNc3c(N4CCOCC4)c(=O)c3=O)cc2)cc1 | > 25 µM
Cc1cc(Br)ccc1NC(=O)c1cnc(N2CCN(c3ccccn3)CC2)c2ccccc12 | 2 µM
Cc1ccc(NC(=O)C2C3/C=C\CCCCC32)cc1C (centres undefined) | > 25 µM
CCOC1OC(=O)C(Cl)=C1Nc1ccccc1C (centres undefined) | 5.59 µM

Compound | IC90
COC(=O)C(C)Sc1ncnc2c1nnn2-c1ccc(F)cc1 (centres undefined) | 4.38 µM
CCC(Sc1ncnc2c1nnn2-c1ccc(F)cc1)C(=O)OC (centres undefined) | > 25 µM
CC(=NCc1ccc2c(c1)OCO2)C1=C(O)c2ccccc2C1=O | 2.35 µM
Cc1nc(SCC(=O)NC2CCCCC2)[nH]c(=O)c1C | 1.07 µM and 3.73 µM
O=C(/C=C/c1ccccc1)N1CCN(CCN2C(=O)c3cccc4cccc(c34)C2=O)CC1 | 5.38 µM
COC(=O)C(C)Oc1ccc(Cc2ncc(C(F)(F)F)cc2Cl)cc1 (centres undefined) | 4.01 µM
O=C(c1ccc(CNc2c(N3CCCC3)c(=O)c2=O)cc1)N1CCN(C2CCCCC2)CC1 | > 25 µM
CCOC(=O)COn1c2c(c3c4no[n+]([O-])c4ccc31)CCCC2 | 2.86 µM
Cc1nn2c(NCc3ccccn3)cc(C(C)C)nc2c1-c1ccccc1 | 2.54 µM
O=C(/C=C\c1cccs1)N1CCN(Cc2ccc3c(c2)OCO3)CC1 | 1.57 µM
O=C(c1ccc(CNc2c(N3CCOCC3)c(=O)c2=O)cc1)N1CC=C(c2ccccc2)CC1 | 2.17 µM
COc1cc(NC(=O)C/C(C)=N/NC(=O)c2ccccn2)c(OC)cc1Cl | 7.91 µM
CCc1ccc(/C=C2/C(=O)N(C)C(=S)N2CC(=O)OC)s1 | 4.61 µM
CCOC(=O)c1ccc(NC(=O)Cn2ncc(Cl)c(Cl)c2=O)cc1 | 1.17 µM
CC1CCCN(C(=O)C2CCC(CNc3c(N4CCCCC4)c(=O)c3=O)CC2)C1 (centres undefined) | > 25 µM
CCC(C)Nc1ccc(NC(C)CC)cc1 (centres undefined) | 1.94 µM
CCOC(=O)C(C)Sc1ncnc2c1nnn2-c1ccc(F)cc1 (centres undefined) | 2.92 µM and 8.28 µM
Cc1nc(SCC(=O)NC2CCCC2)[nH]c(=O)c1C | 16 µM
COC(=O)CSc1ncnc2c1cnn2-c1ccc(C)cc1C | 6.95 µM

Test system: not listed separately
Assay: as above
Details: M. tuberculosis H37Rv growth inhibition, glycerol-free medium; at 25 µM (top of the series)

Compound | inhibition
Cc1[nH]c(=S)[nH]c(=O)c1C | -1.69% (inactive)
Cc1nc(SCC(=O)N(C)c2ccccc2)[nH]c(=O)c1C | -1.39% (inactive)
Nc1cc(=O)[nH]c(SCC(=O)Nc2ccc(Oc3ccccc3)cc2)n1 | 7.34% (inactive)
CCc1c(O)nc(SCC(=O)Nc2ccc(OC)cc2)n(C2CCCCC2)c1=O | 2.43% (inactive)
Cc1cc(=O)[nH]c(=S)[nH]1 | 3.98% (inactive)
COc1ccc(NC(=O)CSc2nc(NS(=O)(=O)c3ccc(C)cc3)cc(=O)[nH]2)cc1 | 1.34% (inactive)
COc1ccc(-c2noc(CSc3nc(N)c(-c4ccccc4)c(=O)[nH]3)n2)cc1OC | 3.69% (inactive)
O=C(NCCc1ccc(Cl)cc1)C1CCC(CNc2c(N3CCCCC3)c(=O)c2=O)CC1 (centres undefined) | 14.2% (inactive)
Cc1cc(=O)[nH]c(SCC(=O)Nc2ncc(S(=O)(=O)c3ccc([N+](=O)[O-])cc3)s2)n1 | 2.85% (inactive)
CCOc1ccc(NC(=O)CSc2nc(N)c(-c3ccccc3)c(=O)[nH]2)cc1 | 2.14% (inactive)
CCOC(=O)N1CCC(Nc2c(N3CCN(c4cccc(C(F)(F)F)c4)CC3)c(=O)c2=O)CC1 | 3.78% (inactive)
COC(=O)c1ccc(CNc2c(N3CCCC3)c(=O)c2=O)cc1 | -5.38% (inactive)
CCc1cc(=O)[nH]c(SCC(=O)Nc2ccc3c(c2)OCCO3)n1 | 5.24% (inactive)
CCOC(=O)C(CC)Sc1ncnc2c1nnn2-c1ccc(F)cc1 (centres undefined) | 14.7% (inactive)
O=C(C1CCC(CNc2c(N3CCCCC3)c(=O)c2=O)CC1)N1CCCCC1 (centres undefined) | 1.49% (inactive)
CCOC(=O)CSc1nc(C)c(C)c(=O)[nH]1 | -1.83% (inactive)
O=C(CSc1ncccn1)NC1CCCCC1 | 2.15% (inactive)
O=C(CSc1ccccn1)NC1CCCCC1 | 5.28% (inactive)
C=CCn1c(SCC(=O)Nc2cccc3ccccc23)nc(O)c(CC)c1=O | 6.9% (inactive)
CCC(Sc1nc(=O)cc(N)n1-c1ccccc1)C(=O)Nc1cc(C)on1 (centres undefined) | 3.38% (inactive)
Nc1cc(=O)[nH]c(SCC(=O)Nc2ccccc2-c2ccccc2)n1 | 3.67% (inactive)
CCOc1ccc2nc(NC(=O)C(CC)Sc3nc(C)cc(=O)[nH]3)sc2c1 (centres undefined) | 4.79% (inactive)
